Where two headings read alike, the source gives them in different places.
Assays:
BALB/c mice = experiment: Toxicity studies in mice; format: in vivo
Method: Toxicity Studies in Mice. […] Female BALB/c mice were used and monitored daily for lethargy, cleanliness and morbidity. At the time of death, necropsies were performed and the toxic effects of WHI-P131 administration were assessed. For histopathologic studies, tissues were fixed in 10% neutral buffered formalin, dehydrated, and embedded in paraffin by routine methods. Glass slides with affixed 6 micron tissue sections were prepared and stained with Hemotoxylin and Eosin (H&E). Female BALB/c mice were administered an i.p. bolus injection of WHI-P131 in 0.2 ml PBS supplemented with 10% DMSO, or 0.2 ml PBS supplemented with 10% DMSO alone (control mice). No sedation or anesthesia was used throughout the treatment period. Mice were monitored daily for mortality for determination of the day 30 LD50 values. Mice surviving until the end of the 30 days monitoring were sacrificed and the tissues were immediately collected from randomly selected mice, and preserved in 10% neutral buffered formalin. Standard tissues collected for histologic evaluation included: bone, bone marrow, brain, cecum, heart, kidney, large intestine, liver, lung, lymph node, ovary, pancreas, skeletal muscle, skin, small intestine, spleen, stomach, thymus, thyroid gland, urinary bladder, and uterus (as available).

[1] = Pharmacokinetic studies in mice; format: in vivo; conditions: for Cmax: 12.5 mg/kg bolus, read-out: estimated maximum plasma concentration (Cmax)
Method: FIGS. 13A and 13B are graphs showing pharmacokinetic features of the JAK3 inhibitor WHI-P131 in mice. Plasma concentration-time profiles of WHI-P131 in mice following intravenous [13A] or intraperitoneal [13B] administration (12.5 mg/kg; 5 mice per group). The pharmacokinetic parameters, including the central volume of distribution (Vc), estimated maximum plasma concentration (Cmax), elimination half-life (t½β), systemic exposure level/area under plasma concentration-time curve (AUC), and bioavailability (F), are shown in the insets.
Pharmacokinetic Studies: In pharmacokinetic studies, mice were injected either intravenously (i.v.) via the tail vein or intraperitoneally (i.p.) with a bolus dose of 300 μg/mouse (12.5 mg/kg =34 μmols/kg) of WHI-P131. Blood samples were obtained from the ocular venous plexus by retroorbital venupuncture prior to and at 3 minutes, 5 minutes, 10 minutes, 15 minutes, 30 minutes, 45 minutes and 1 hour, 2 hours, 4 hours and 8 hours a administration of WHI-P131. All collected blood samples were heparinized and centrifuged at 7,000×g for 10 minutes in a microcentrifuge to obtain plasma. The plasma samples were stored at −20° C. until analysis. Aliquots of plasma were used for extraction and HPLC analysis. Pharmacokinetic modeling and pharmacokinetic parameter calculations were carried out using the pharmacokinetics software, WinNonline Program, Version 1.1. (Scientific Consulting Inc., Cary, N.C.). Concentration data were weighted by 1/concentration. An appropriate pharmacokinetic model was chosen on the basis of lowest weighted squared residuals, lowest Schwartz criterion (SC), lowest Akaike's Information Criterion (AIC) value, lowest standard errors of the fitted parameters, and dispersion of the residuals. The elimination half-life was estimated by linear regression analysis of the terminal phase of the plasma concentration profile. The area under the concentration time curve (AUC) was calculated by the trapezoidal rule between first (0 h) and last sampling time plus C/k, where C is the concentration of last sampling and k is the elimination rate constant. Systemic clearance (CL) was determined by dividing the dose by the AUC. The apparent volume of distribution at steady-state was calculated using the following equation, Vss=Dose·AUMC/(AUC)^2 Bioavailability (F) was estimated using the equation F(%)=AUCip×Doseiv/AUCiv×Doseip.
In brief, the HPLC system consisted of a Hewlett Packard (HP) series 1100 equipped with an automated electronic degasser, a quaternary pump, an autosampler, an automatic thermostatic column compartment, diode array detector and a computer with a Chemstation software program for data analysis. A 250×4 mm Lichrospher 100, RP-18 (5 μm) analytical column and a 4×4 mm Lichrospher 100, RP-18 (5 μm) guard column were obtained from Hewlett Packard Inc. (San Fernando, Calif.). Acetonitrile/water containing 0.1% of trifluoroacetic acid (TFA) and 0.1% triethylamine (TEA) (28:72, v/v) was used as the mobile phase. The wavelength of detection was set at 340 nm. Peak width, response time and slit were set at >0.03 minutes, 0.5 seconds and 8 nm, respectively. […] For extraction, 7 ml chloroform was then added to the plasma sample, and the mixture was vortexed thoroughly for 3 minutes. Following centrifugation (300×g, 5 minutes), the aqueous layer was frozen using acetone/dry ice and the organic phase was transferred into a clean test tube. The chloroform extracts were dried under a slow steady stream of nitrogen. The residue was reconstituted in 100 μL of methanol: water (9:1) and 50 μL aliquot of this solution was used for HPLC analysis.

recombinant JAK2 = recombinant JAK2 (Homo sapiens, UniProt O60674); experiment: Immune complex kinase assay, recombinant JAK2; conditions: FIG. 6C & D
recombinant JAK2, sequence (O60674 whole entry): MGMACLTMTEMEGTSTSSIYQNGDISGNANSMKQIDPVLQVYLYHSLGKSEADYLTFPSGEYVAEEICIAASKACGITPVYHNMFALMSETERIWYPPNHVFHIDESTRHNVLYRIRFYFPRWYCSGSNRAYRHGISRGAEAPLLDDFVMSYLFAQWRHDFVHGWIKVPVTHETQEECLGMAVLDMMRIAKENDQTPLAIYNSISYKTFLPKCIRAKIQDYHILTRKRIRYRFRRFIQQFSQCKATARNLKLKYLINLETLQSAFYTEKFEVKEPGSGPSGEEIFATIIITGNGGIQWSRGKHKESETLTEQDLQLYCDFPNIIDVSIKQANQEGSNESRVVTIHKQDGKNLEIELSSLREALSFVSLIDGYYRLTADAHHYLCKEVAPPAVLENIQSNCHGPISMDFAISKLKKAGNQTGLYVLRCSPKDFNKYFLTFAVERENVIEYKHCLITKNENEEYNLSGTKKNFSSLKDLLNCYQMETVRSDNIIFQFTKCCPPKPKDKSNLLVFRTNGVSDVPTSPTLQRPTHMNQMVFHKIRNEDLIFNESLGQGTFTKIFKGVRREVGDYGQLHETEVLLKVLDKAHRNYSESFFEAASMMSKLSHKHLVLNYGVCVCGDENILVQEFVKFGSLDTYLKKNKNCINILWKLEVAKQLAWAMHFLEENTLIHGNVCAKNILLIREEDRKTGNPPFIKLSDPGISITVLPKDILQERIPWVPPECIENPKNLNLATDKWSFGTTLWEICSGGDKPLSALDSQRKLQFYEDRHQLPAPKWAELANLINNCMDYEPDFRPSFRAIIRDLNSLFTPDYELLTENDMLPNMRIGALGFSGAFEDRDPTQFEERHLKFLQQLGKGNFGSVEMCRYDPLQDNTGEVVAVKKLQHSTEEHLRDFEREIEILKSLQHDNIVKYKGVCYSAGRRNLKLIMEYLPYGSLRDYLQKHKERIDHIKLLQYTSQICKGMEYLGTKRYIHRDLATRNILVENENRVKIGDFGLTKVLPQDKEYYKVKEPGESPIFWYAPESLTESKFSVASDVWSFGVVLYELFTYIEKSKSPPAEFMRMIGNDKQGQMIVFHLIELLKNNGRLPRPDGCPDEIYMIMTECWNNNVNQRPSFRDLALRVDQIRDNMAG
Method: In FIGS. 6A-6D, JAK3, JAK1, and JAK2 were immunoprecipitated from Sf21 insect ovary cells transfected with the appropriate baculovirus expression vectors and treated with WHI-P131, then subjected to in vitro kinase assays as described in the Examples below. The enzymatic activity of JAKs was determined by measuring autophosphorylation in a 10 minute kinase assay, as described in the Examples below. The kinase activity (KA) levels were expressed as percentage of baseline activity (%CON).
Immune Complex Kinase Assays. Sf21 (IPLB-SF21-AE) cells (Vassilev et. al., 1999, J. Biol. Chem,. 274:1646-1656) derived from the ovarian tissue of the fall armyworm Spodotera frugiperda, were obtained from Invitrogen and maintained at 26-28° C. in Grace's insect cell medium supplemented with 10% FBS and 1.0% antibiotic/antimycotic (GIBCO-BRL). Stock cells were maintained in suspension at 0.2-1.6×10^6/ml in 600 ml total culture volume in 1 L Bellco spinner flasks at 60-90 rpm. Cell viability was maintained at 95-100% as determined by trypan blue dye exclusion.
Sf21 cells were infected with a baculovirus expression vector for BTK, SYK, JAK1, JAK2, or JAK3, as previously reported (Mahajan et. al., 1999, J. Biol. Chem., 274:1646-1656). […]

In the case of COc1cc2ncnc(Nc3ccc(O)cc3)c2cc1OC [WHI-P131, 4-(4′-Hydroxylphenyl)-amino-6,7-dimethoxyquinazoline], the toxicity (BALB/c mice; i.p. single bolus 0.5 mg/kg to 250 mg/kg, 30 day observation) is reported as “not toxic”, the “maximum tolerated dose (MTD)” value (BALB/c mice; i.p. single bolus, mice) is reported as > 250 mg/kg and the “histopathologic lesions in organs” value (BALB/c mice; mice killed at 30 days) is reported as “No histopathologic lesions”. For the same compound, the “hematologic side effects (neutropenia, lymphopenia, anemia)” value (BALB/c mice; tested dose levels, mice) was “no hematologic side effects”, the absorption half-life ([1]; i.p., 12.5 mg/kg) was 6 min and the estimated bioavailability ([1]; i.p., 12.5 mg/kg) was 94.4%. For the same compound, the “time to reach maximum plasma concentration” value ([1]; i.p., 12.5 mg/kg) was 0.17 h, the β-half-life ([1]; i.p., 12.5 mg/kg) was 1.9 h and the Cmax ([1]; i.p.) was 57.7 µM. The β-half-life ([1]; i.v., 12.5 mg/kg) was 2.1 h, the Cmax ([1]; i.v.) was 85.6 µM and the “inhibitory activity against recombinant JAK2” value (recombinant JAK2) was “did not exhibit any detectable inhibitory activity”.

From patent US6452005B1, “JAK-3 inhibitors for treating allergic disorders” (Parker Hughes Institute, priority 1999, dated 2002)
